The values below come from patent US20230082287A1, “METHODS OF TREATING AN INFLAMMATORY OR OBSTRUCTIVE AIRWAY DISEASE USING ANTI-TSLP ANTIBODY” (Novartis AG, priority 2020, published 2023).

Experiment [1] has as its system late asthmatic response (LAR). Put plainly: Published allergen challenge LAR data for budesonide/formoterol. Format: in vivo. The settings on record: 400/12 μg; calculated from published data. From the text: Published data from other widely asthma treatment budosenide/formoterol (ICS/LABA, inhaled corticosteroid+long-acting beta agonist) combination was used in a similar fashion to calculate its efficacy and results compared with CSJ117 in Table 10.

Experiment [2] has as its system late asthmatic response (LAR). The settings on record: 400/12 μg; J ALLERGY CLIN IMMUNOL VOLUME 119, NUMBER 2, pp 322-327; cited from earlier work.

As for Budesonide/formoterol, in experiment [1], the “E, % [(B-A)/B]*100” value was 80.2% and the “LAR B-A (placebo minus treatment), maximal fall % FEV1” value is on record as 17. In addition, in experiment [2], the “LAR Treatment (A), maximal fall % FEV1” value was 4.2%.
